Assay results published in article PMC4186413, “Identification of metabolic pathways and enzyme systems involved in the in vitro human hepatic metabolism of dronedarone, a potent new oral antiarrhythmic drug” (Pharmacology Research & Perspectives, 2014).
Each block holds one molecule with its values, some of them ahead of it.

Legend:
MAO-A = molecular target: T1, MAO-A (Homo sapiens, UniProt P21397); experiment: Oxidation by recombinant human MAO-A; assay type: in vitro ADME; details: 1 mg/mL, 5 μmol/L, 30 min, no cofactor
T1 construct: purchased BD Gentest (Woburn, MA); host or cells: baculovirus-infected insect cells
Source text: (§1) Recombinant human CYPs (Supersomes™; BD Gentes, Woburn, MA: CYP1A1, CYP1A2, CYP2A6, CYP2B6, CYP2C8, CYP2C9, CYP2C18, CYP2C19, CYP2D6, CYP2E1, CYP3A4 and CYP3A5), FMOs (Supersomes™: FMO1, FMO3, FMO5), MAOs (Supersomes™: MAO-A and MAO-B), and UGTs (Supersomes™: UGT1A1, UGT1A3, UGT1A4, UGT1A6, UGT1A7, UGT1A8, UGT1A9, UGT1A10, UGT2B4, UGT2B7, UGT2B15, and UGT2B17) expressed in baculovirus-infected insect cells and control microsomes from insect cells infected with wild-type baculovirus were all obtained from BD Gentest (Woburn, MA). […]
(§2) In human liver microsomes and recombinant isoforms, the percentage of metabolism was determined on the basis of unchanged drug disappearance, using the following equation [drawing 1] where UDt = 30 min represents the unchanged drug peak area after a 30-min incubation period and UDt = 0, the unchanged drug peak area at t = 0. […]
(§3) Figure 5 Contribution of individual CYPs, FMOs and MAOs to the oxidation of dronedarone and its metabolites. […] Unchanged drugs were quantified by LC/MS-MS relative to the synthetic references as described in Materials and Methods. Data are expressed as the percentage of oxidation.

CYP3A4 = details: reversible inhibition, human liver microsomes, reported; cited from earlier work
CYP2C8 = molecular target: T2, CYP2C8 (Homo sapiens, UniProt P10632); experiment: Oxidation by recombinant human CYP2C8; assay type: in vitro ADME; details: 100 pmol/mL, 5 μmol/L, 30 min, NADPH
T2 construct: purchased BD Gentest (Woburn, MA); host or cells: baculovirus-infected insect cells
Source text: as §1, §2, §3

CYP2C19 = molecular target: T3, CYP2C19 (Homo sapiens, UniProt P33261); experiment: Oxidation by recombinant human CYP2C19; assay type: in vitro ADME; details: 100 pmol/mL, 5 μmol/L, 30 min, NADPH
T3 construct: purchased BD Gentest (Woburn, MA); host or cells: baculovirus-infected insect cells
Source text: as §1, §2, §3

UGT1A1 = molecular target: T4, UGT1A1 (Homo sapiens, UniProt P22309); experiment: Glucuronidation by recombinant human UGT1A1; assay type: in vitro ADME; details: 1 mg/mL, 5 μmol/L, 30 min, UDPGA
T4 construct: purchased BD Gentest (Woburn, MA); host or cells: baculovirus-infected insect cells
Source text: (§4) Recombinant human CYPs (Supersomes™; BD Gentes, Woburn, MA: CYP1A1, CYP1A2, CYP2A6, CYP2B6, CYP2C8, CYP2C9, CYP2C18, CYP2C19, CYP2D6, CYP2E1, CYP3A4 and CYP3A5), FMOs (Supersomes™: FMO1, FMO3, FMO5), MAOs (Supersomes™: MAO-A and MAO-B), and UGTs (Supersomes™: UGT1A1, UGT1A3, UGT1A4, UGT1A6, UGT1A7, UGT1A8, UGT1A9, UGT1A10, UGT2B4, UGT2B7, UGT2B15, and UGT2B17) expressed in baculovirus-infected insect cells and control microsomes from insect cells infected with wild-type baculovirus were all obtained from BD Gentest (Woburn, MA).
(§5) For glucuronidation pathways, the assay mixture was composed of human liver microsomes (2 mg·mL^−1) or microsomes of baculovirus-infected cells expressing human UGTs (1 mg·mL^−1), uridine 5′-diphosphoglucuronic acid (UDPGA) (3 mmol/L), 100 mmol/L Tris HCl (pH 7.4) containing 5 mmol/L MgCl2 and 5 μmol/L of the investigated compound dissolved in DMSO in a final volume of 500 μL. The final concentration of DMSO in the reaction mixture was less than 1% (v/v). […]
(§6) Figure 7 Contribution of individual UGTs to the glucuronidation of propanoic acid-dronedarone and phenol-dronedarone. […] Unchanged drugs were quantified by LC/MS-MS relative to the synthetic references as described in Materials and Methods. Data are expressed as the percentage of glucuronidation.

UGT1A3 = molecular target: T5, UGT1A3 (Homo sapiens, UniProt P35503); experiment: Glucuronidation by recombinant human UGT1A3; assay type: in vitro ADME; details: 1 mg/mL, 5 μmol/L, 30 min, UDPGA
T5 construct: purchased BD Gentest (Woburn, MA); host or cells: baculovirus-infected insect cells
Source text: as §4, §5, §6

UGT2B15 = molecular target: T6, UGT2B15 (Homo sapiens, UniProt P54855); experiment: Glucuronidation by recombinant human UGT2B15; assay type: in vitro ADME; details: 1 mg/mL, 5 μmol/L, 30 min, UDPGA
T6 construct: purchased BD Gentest (Woburn, MA); host or cells: baculovirus-infected insect cells
Source text: as §4, §5, §6

T2 sequence (P10632 whole entry): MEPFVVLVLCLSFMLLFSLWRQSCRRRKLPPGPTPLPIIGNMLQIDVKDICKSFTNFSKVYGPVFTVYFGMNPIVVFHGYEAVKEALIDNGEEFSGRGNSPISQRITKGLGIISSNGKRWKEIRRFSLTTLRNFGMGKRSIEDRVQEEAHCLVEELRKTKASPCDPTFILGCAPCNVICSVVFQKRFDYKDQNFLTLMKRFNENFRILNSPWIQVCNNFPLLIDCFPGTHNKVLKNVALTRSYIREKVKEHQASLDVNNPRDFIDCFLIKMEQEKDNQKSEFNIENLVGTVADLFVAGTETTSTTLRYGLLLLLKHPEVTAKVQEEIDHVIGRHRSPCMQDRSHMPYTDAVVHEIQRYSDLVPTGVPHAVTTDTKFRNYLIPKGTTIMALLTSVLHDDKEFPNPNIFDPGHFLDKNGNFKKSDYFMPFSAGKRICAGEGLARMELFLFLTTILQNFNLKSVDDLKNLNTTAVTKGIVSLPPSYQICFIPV
T1 sequence (P21397 whole entry): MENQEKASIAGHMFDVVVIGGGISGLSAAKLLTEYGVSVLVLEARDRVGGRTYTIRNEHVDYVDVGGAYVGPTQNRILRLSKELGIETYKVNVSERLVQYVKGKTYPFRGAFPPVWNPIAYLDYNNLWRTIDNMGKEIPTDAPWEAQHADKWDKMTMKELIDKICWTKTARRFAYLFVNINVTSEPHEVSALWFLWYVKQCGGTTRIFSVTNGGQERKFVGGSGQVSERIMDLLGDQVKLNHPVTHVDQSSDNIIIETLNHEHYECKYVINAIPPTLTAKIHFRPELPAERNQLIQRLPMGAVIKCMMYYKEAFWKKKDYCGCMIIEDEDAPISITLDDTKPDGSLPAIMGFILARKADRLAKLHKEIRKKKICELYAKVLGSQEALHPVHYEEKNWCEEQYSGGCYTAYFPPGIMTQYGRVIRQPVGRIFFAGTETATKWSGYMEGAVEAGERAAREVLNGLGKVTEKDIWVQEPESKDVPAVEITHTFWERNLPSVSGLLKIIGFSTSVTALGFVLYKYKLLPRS
T6 sequence (P54855 24-530): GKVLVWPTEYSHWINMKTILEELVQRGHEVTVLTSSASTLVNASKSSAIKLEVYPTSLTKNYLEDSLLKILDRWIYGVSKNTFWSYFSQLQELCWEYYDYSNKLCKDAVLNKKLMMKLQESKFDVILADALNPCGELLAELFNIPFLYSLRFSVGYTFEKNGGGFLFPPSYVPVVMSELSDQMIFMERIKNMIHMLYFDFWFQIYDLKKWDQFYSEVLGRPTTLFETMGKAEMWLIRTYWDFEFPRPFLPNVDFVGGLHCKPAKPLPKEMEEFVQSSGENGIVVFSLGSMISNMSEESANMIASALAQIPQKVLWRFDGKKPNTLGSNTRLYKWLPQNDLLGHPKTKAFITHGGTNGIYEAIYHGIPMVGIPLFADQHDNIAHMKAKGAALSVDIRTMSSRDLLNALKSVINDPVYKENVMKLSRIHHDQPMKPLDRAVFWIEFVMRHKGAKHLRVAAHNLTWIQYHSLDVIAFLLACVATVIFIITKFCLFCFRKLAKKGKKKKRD
T5 sequence (P35503 29-534): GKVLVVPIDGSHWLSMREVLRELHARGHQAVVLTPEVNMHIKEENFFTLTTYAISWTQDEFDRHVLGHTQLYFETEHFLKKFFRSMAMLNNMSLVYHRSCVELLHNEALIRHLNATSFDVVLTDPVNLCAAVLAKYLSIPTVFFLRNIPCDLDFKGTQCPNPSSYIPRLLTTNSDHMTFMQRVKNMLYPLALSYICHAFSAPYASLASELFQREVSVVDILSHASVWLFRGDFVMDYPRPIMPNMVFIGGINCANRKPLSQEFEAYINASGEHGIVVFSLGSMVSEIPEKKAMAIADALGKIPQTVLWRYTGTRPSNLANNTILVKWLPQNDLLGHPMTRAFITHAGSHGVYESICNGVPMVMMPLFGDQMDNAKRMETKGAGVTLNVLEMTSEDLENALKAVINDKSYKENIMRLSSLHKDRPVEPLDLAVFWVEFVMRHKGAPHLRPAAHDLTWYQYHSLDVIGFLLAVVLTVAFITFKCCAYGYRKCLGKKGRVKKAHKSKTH
T3 sequence (P33261 whole entry): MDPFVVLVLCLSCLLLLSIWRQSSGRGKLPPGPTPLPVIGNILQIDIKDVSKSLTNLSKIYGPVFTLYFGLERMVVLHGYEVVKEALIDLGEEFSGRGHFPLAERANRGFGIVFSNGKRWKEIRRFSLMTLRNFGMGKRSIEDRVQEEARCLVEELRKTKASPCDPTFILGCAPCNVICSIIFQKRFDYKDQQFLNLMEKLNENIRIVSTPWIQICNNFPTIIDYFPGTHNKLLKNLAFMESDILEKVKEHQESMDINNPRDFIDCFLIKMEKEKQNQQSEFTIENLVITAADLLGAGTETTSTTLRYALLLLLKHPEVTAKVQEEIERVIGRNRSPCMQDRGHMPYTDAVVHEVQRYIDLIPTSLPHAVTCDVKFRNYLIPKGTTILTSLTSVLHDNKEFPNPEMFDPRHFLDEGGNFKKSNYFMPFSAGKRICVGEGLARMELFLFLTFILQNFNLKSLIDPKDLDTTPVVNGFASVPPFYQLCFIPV
T4 sequence (P22309 26-533): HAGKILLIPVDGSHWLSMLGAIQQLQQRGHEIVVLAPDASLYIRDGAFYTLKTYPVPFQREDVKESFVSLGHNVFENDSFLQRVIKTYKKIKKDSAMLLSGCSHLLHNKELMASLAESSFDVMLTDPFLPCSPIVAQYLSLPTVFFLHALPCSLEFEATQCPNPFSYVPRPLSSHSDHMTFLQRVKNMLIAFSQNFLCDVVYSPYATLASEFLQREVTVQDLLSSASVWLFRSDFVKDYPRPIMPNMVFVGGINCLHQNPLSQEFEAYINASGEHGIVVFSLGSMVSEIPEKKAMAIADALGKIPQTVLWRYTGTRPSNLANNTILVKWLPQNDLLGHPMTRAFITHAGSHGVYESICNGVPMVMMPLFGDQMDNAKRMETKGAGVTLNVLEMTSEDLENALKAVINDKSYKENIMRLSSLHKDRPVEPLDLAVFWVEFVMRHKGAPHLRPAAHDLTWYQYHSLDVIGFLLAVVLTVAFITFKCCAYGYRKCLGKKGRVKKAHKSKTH

- Percentage of oxidation (unchanged drug disappearance) by MAO-A (MAO-A): 98%
SMILES: CCCCNCCCOc1ccc(C(=O)c2c(CCCC)oc3ccc(NS(C)(=O)=O)cc23)cc1 [N-debutyl-dronedarone]

- Percentage of oxidation (unchanged drug disappearance) by CYP2C8 (CYP2C8): 28%
SMILES: CCCCc1oc2ccc(NS(C)(=O)=O)cc2c1C(=O)c1ccc(OCCC(=O)O)cc1 [Propanoic acid-dronedarone]

- Percentage of oxidation (unchanged drug disappearance) by CYP2C19 (CYP2C19): 52%
SMILES: CCCCc1oc2ccc(NS(C)(=O)=O)cc2c1C(=O)c1ccc(O)cc1 [Phenol-dronedarone]
- Glucuronosyl transferase activity of UGT1A1 (UGT1A1): significant glucuronosyl transferase activity
- Glucuronosyl transferase activity of UGT1A3 (UGT1A3): significant glucuronosyl transferase activity
- Glucuronosyl transferase activity of UGT2B15 (UGT2B15): significant glucuronosyl transferase activity
